What was measured:
Type in all cases: cell-based
[1] = tested on: HCT15 (human colon adenocarcinoma) cell line; assay: In vitro cytotoxic activity (MTT assay) against HCT15 cells; conditions: for IC50: MTT assay, cultures incubated 24 h with compound, ± standard deviation, three independent experiments; for cytotoxicity against HCT15 compared in words with cisplatin / carboplatin: HCT15 cells, comparison of IC50 values
Method: (§1) The cis-[Pt(NH3)2(thione)2].2NO3 complexes were evaluated for their in vitro cytotoxic activity against A549 (human lung cancer), MCF-7 (human breast cancer) and HTC15 (human colon cancer) cell lines. The cells were seeded at 4×10^3 cells/well in 100 μL DMEM containing 10% FBS in 96-wells tissue culture plate and incubated for 72 h at 37° C., 5% CO2 in the air and 90% relative humidity in the CO2 incubator. […] The medium of wells was discarded and 100 μL DMEM containing MTT (3-(4,5-Dimethylthiazol-2-yl)-2,5-diphenyltetrazolium Bromide) (5 mg/mL) was added to the wells and incubated in a CO2 incubator at 37° C. in dark for 4 h. After incubation, purple colored formazan (artificial chromogenic dye, a product of the reduction of water insoluble tetrazolium salts e.g., MMT by dehydrogenases and reductases) in the cells is produced and appeared as dark crystals in the bottom of the wells. The resultant crystals were solubilized by adding 100 μL of DMSO in each well. The solution was thoroughly mixed to dissolve the formazan crystals, producing a purple solution. The absorbance of the 96-wells plate was taken at 570 nm with Labsystems Multiskan EX-Enzyme-linked immunosorbent assay (EX-ELISA) reader against a reagent blank. The IC50 values were calculated from three independent experiments by generating an equation of logarithmic trendline of percentage cell viability against concentration compounds in Microsoft excel.
(§2) The IC50 values were obtained from curves between the complexes concentration and viability percentage of the cells, and are listed, in Table 3.
(§3) The experimental results are presented as the micro-mole concentration of 50%/0 cell growth inhibition (IC50) of each drug. The MTT assay was performed in three independent experiments, each in triplicate. The cancer cell lines used are A549 (human lung cancer), MCF-7 (human breast cancer) and HTC15 (human colon cancer) cell lines.

[2] = tested on: A549 (human lung carcinoma) cell line; assay: In vitro cytotoxic activity (MTT assay) against A549 cells; conditions: for IC50: MTT assay, cultures incubated 24 h with compound, ± standard deviation, three independent experiments; for in vitro cytotoxicity against A549 compared in words with cisplatin / carboplatin: A549 cells, comparison of IC50 values
Method: as §1
The MTT assay was performed in three independent experiments, each in triplicate. The cancer cell lines used are A549 (human lung cancer), MCF-7 (human breast cancer) and HTC15 (human colon cancer) cell lines.

[3] = tested on: MCF7 (human breast carcinoma) cell line; assay: In vitro cytotoxic activity (MTT assay) against MCF7 cells; conditions: for antiproliferative potency against MCF7 in words, compared with cisplatin / carboplatin: MCF7 cells, comparison of IC50 values; for IC50: MTT assay, cultures incubated 24 h with compound, ± standard deviation, three independent experiments
Method: as §1, §2, §3

N.N.O=C([O-])C1(C(=O)[O-])CCC1.[Pt+2] [Carboplatin, reference compound]
IC50 [1]: 53 ± 2 µM | IC50 [2]: 70 ± 2 µM | antiproliferative potency against MCF7 in words, compared with cisplatin / carboplatin [3]: poor antiproliferative potency | IC50 [3]: 63 ± 2 µM

CN1CCN(C)C1=[S+][Pt-2]([NH3+])([NH3+])[S+]=C1N(C)CCN1C.O=[N+]([O-])[O-].O=[N+]([O-])[O-] [Compound 3, cis-[Pt(NH3)2(Me2Imt)2].2NO3]
cytotoxicity against HCT15 compared in words with cisplatin / carboplatin [1]: nearly same value as carboplatin | IC50 [1]: 54 ± 1 µM | IC50 [2]: 68 ± 1 µM | antiproliferative potency against MCF7 in words, compared with cisplatin / carboplatin [3]: greater cytotoxic effect than carboplatin | IC50 [3]: 58 µM

N.N.[Cl][Pt][Cl] [Cisplatin, cis-diaminedichloridoplatinum(II), reference compound]
IC50 [1]: 32 ± 2 µM | IC50 [2]: 42 ± 2 µM | IC50 [3]: 23 ± 3 µM

O=[N+]([O-])[O-].O=[N+]([O-])[O-].[NH3+][Pt-2]([NH3+])([S+]=C1NCCN1)[S+]=C1NCCN1 [Compound 1, cis-[Pt(NH3)2(Imt)2].2NO3]
IC50 [1]: 82 ± 1 µM | in vitro cytotoxicity against A549 compared in words with cisplatin / carboplatin [2]: comparable to cisplatin | IC50 [2]: 53 µM | IC50 [3]: 101 ± 2 µM

CC(C)N1CCN(C(C)C)C1=[S+][Pt-2]([NH3+])([NH3+])[S+]=C1N(C(C)C)CCN1C(C)C.O=[N+]([O-])[O-].O=[N+]([O-])[O-] [Compound 7, cis-[Pt(NH3)2(iPr2Imt)2].2NO3]
cytotoxicity against HCT15 compared in words with cisplatin / carboplatin [1]: lower IC50 values | IC50 [1]: 52 ± 1 µM | in vitro cytotoxicity against A549 compared in words with cisplatin / carboplatin [2]: comparable to cisplatin | IC50 [2]: 50 µM | IC50 [3]: 78 ± 2 µM

CCCN1CCNC1=[S+][Pt-2]([NH3+])([NH3+])[S+]=C1NCCN1CCC.O=[N+]([O-])[O-].O=[N+]([O-])[O-] [Compound 5, cis-[Pt(NH3)2(PrImt)2].2NO3]
cytotoxicity against HCT15 compared in words with cisplatin / carboplatin [1]: lower IC50 values | IC50 [1]: 51 ± 2 µM | in vitro cytotoxicity against A549 compared in words with cisplatin / carboplatin [2]: nearly same as that of carboplatin | IC50 [2]: 72 ± 2 µM | IC50 [3]: 74 ± 2 µM

CCN1CCCNC1=[S+][Pt-2]([NH3+])([NH3+])[S+]=C1NCCCN1CC.O=[N+]([O-])[O-].O=[N+]([O-])[O-] [Compound 9, cis-[Pt(NH3)2(EtDiaz)2].2NO3]
IC50 [1]: 90 ± 2 µM | in vitro cytotoxicity against A549 compared in words with cisplatin / carboplatin [2]: nearly same as that of carboplatin | IC50 [2]: 73 ± 1 µM | IC50 [3]: 103 ± 3 µM

CC(C)N1CCNC1=[S+][Pt-2]([NH3+])([NH3+])[S+]=C1NCCN1C(C)C.O=[N+]([O-])[O-].O=[N+]([O-])[O-] [Compound 6, cis-[Pt(NH3)2(iPrImt)2].2NO3]
cytotoxicity against HCT15 compared in words with cisplatin / carboplatin [1]: lower IC50 values | IC50 [1]: 48 ± 1 µM | in vitro cytotoxicity against A549 compared in words with cisplatin / carboplatin [2]: comparable to cisplatin | IC50 [2]: 55 µM | IC50 [3]: 81 ± 3 µM

O=[N+]([O-])[O-].O=[N+]([O-])[O-].[NH3+][Pt-2]([NH3+])([S+]=C1NCCCCN1)[S+]=C1NCCCCN1 [Compound 10, cis-[Pt(NH3)2(Diap)2].2NO3]
cytotoxicity against HCT15 compared in words with cisplatin / carboplatin [1]: lower IC50 values | IC50 [1]: 41 ± 1 µM | in vitro cytotoxicity against A549 compared in words with cisplatin / carboplatin [2]: comparable to cisplatin | IC50 [2]: 52 µM | IC50 [3]: 71 ± 1 µM

CN1CCNC1=[S+][Pt-2]([NH3+])([NH3+])[S+]=C1NCCN1C.O=[N+]([O-])[O-].O=[N+]([O-])[O-] [Compound 2, cis-[Pt(NH3)2(MeImt)2].2NO3]
IC50 [1]: 75 ± 2 µM | IC50 [2]: 85 ± 1 µM | IC50 [3]: 82 ± 1 µM

CCN1CCN(CC)C1=[S+][Pt-2]([NH3+])([NH3+])[S+]=C1N(CC)CCN1CC.O=[N+]([O-])[O-].O=[N+]([O-])[O-] [Compound 4, cis-[Pt(NH3)2(Et2Imt)2].2NO3]
IC50 [1]: 97 ± 3 µM | IC50 [2]: 108 ± 2 µM | IC50 [3]: 97 ± 3 µM

O=[N+]([O-])[O-].O=[N+]([O-])[O-].[NH3+][Pt-2]([NH3+])([S+]=C1NCCCN1)[S+]=C1NCCCN1 [Compound 8, cis-[Pt(NH3)2(Diaz)2].2NO3]
IC50 [1]: 76 ± 1 µM | in vitro cytotoxicity against A549 compared in words with cisplatin / carboplatin [2]: nearly same as that of carboplatin | IC50 [2]: 75 ± 2 µM | IC50 [3]: 90 ± 2 µM
